Entries after “also recorded” stand apart in the source; their conditions may differ. Where two headings read alike, the source gives them in different places.
Experiments:
[1] = tested on: photoreceptor neurons of rd1 mouse retina; assay: ex vivo rd1 mouse retina culture, photoreceptor rows and nucleus numbers; assay type: cell-based; settings: 10 μM
Experimental: The effect of PAN-811 was examined in an ex vivo model, in which retinas were isolated from rd1 mouse at PN7 and treated in culture with 0, 2 and 10 μM PAN-811 for 21 days (equal to PN28).
The one model of RP study is rd1 mouse in which, like in RP patient, the gene for β-phospodiesterase is spontaneously mutated in rod photoreceptor neurons results in the rod cell loss. The apoptosis starts at postnatal day (PN) 9 to 10, peaks at PN13 and is completed at PN21.
To test the effect PAN-811, retinas from rd1 (C3H strain) mice at PN7 were cultured in the presence of 0 (n=6), 2 (n=6) and 10 (n=7) μM PAN-811. After 21 days in vitro (equal to PN28), the hematoxylin/eosin stained retinal section was analyzed at five positions; the very center of the retina plus at two positions on each side of this, approximately 200 μm apart, and referred to as mid-periphery and periphery, respectively. The retina from the rd1 mouse commonly carried only a thin layer of photoreceptor neurons (FIG. 1A—photo on left). […] Quantitatively, a control group has two layers of photoreceptor neurons at center, mid-periphery or pheriphery (FIG. 1B). PAN-811 at a concentration of 10 μM, but not 2 μM, increased the row numbers from 2 to 3 (P<0.05) at all measured areas.
Nucleus numbers for photoreceptor neurons that locate in center (n=7), mid-periphery (n=6) and periphery (n=6) were counted on photos (within 35 mm length of rode photoreceptor layer after magnification) by ImageJ software (NIH) and the data were expressed as percentage of untreated control. […]
Twenty retinas from 10 rd1 mice (C3H strain) were dissected out at PN7 and mounted flat on HA mixed cellulose, 0.45 μm membranes fitted to culture dish inserts (Millipore Corp). […] The sections were analyzed and photographed under a microscope, blindly with respect to origin The rows of photoreceptors in the outer nuclear layer of the retina were quantitatively evaluated in a total of at least 30 sections for each preparation (4 slides from each preparation and 8 sections from each slide). […]

ischemic stroke = ischemic stroke model (Jiang et al., 2006); cited from earlier work
retinal degeneration [2] = settings: RCS, P23H, S334ter, photo stress rats, rd mice, CAR model rats (Ohguro, 2008); cited from earlier work
retinal degeneration [3] = settings: RSC rats; cited from earlier work
[4] = cited from earlier work

NC(=S)N/N=C/c1ncccc1N [PAN-811, 3-aminopyridine-2-carboxaldehyde thiosemicarbazone]
increase of nucleus numbers of photoreceptor neurons vs untreated control ([1]; 21 days in vitro, center, mid-periphery and periphery, P<0.01): about 50% | row numbers of photoreceptor neurons ([1]; 21 days in vitro, center, mid-periphery, periphery, control 2 rows, P<0.05): 3 | loss of photoreceptor neurons / thickness of photoreceptor layer ([1]; retinas from rd1 mouse at PN7, 21 days in culture): prevents loss of photoreceptor neurons; also recorded: prevented the loss of photoreceptor neurons; also recorded: thicker | neuroprotective activity (ischemic stroke): potent neuroprotective activity

COC(=O)C1=C(C#N)NC(C)=C(C(=O)OC(C)C)C1c1cccc([N+](=O)[O-])c1 (stereo not shown) [Nilvadipine]
effect against retinal degeneration (retinal degeneration [2]): beneficial effects against retinal degeneration in all models tested | effect against retinal degeneration (retinal degeneration [3]): beneficial effect against retinal degeneration

B1: CNTF: Ciliary neurotrophic factor, neurotrophic factor delivered into eye (protein, UniProt P26441 1-200, looked up)
Ciliary neurotrophic factor: MAFTEHSPLTPHRRDLCSRSIWLARKIRSDLTALTESYVKHQGLNKNINLDSADGMPVASTDQWSELTEAERLQENLQAYRTFHVLLARLLEDQQVHFTPTEGDFHQAIHTLLLQVAAFAYQIEELMILLEYKIPRNEADGMPINVGDGGLFEKKLWGLKVLQELSQWTVRSIHDLRFISSHQTGIPARGSHYIANNKKM
half-life in vivo [4]: 2 to 6.67 h
